# Results as given in PubChem BioAssay (NCI).
#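 1) Cells in 96-well plates. 2) Compound, 48 h, 5 concentrations. 3) Linear interpolation between surrounding doses. 4) Unreached endpoint = highest concentration. Abbreviation: GI50, concentration required for 50% inhibition of growth. TGI denotes the concentration required for complete inhibition of growth.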
# Legend:
# Assay in all cases: NCI-60 cell line screen, 48 h
# MDA-MB-435 = system: MDA-MB-435
# MALME-3M melanoma = system: MALME-3M melanoma
# SF-295 CNS = system: SF-295 CNS
# HCT-116 colon = system: HCT-116 colon
# OVCAR-5 ovarian = system: OVCAR-5 ovarian
# OVCAR-8 ovarian = system: OVCAR-8 ovarian
# M14 melanoma = system: M14 melanoma
# A549 NSCLC = system: A549 NSCLC
# EKVX NSCLC = system: EKVX NSCLC
# HT29 colon = system: HT29 colon
# SW-620 colon = system: SW-620 colon
# NCI-H522 lung = system: NCI-H522 lung
# SK-MEL-28 melanoma = system: SK-MEL-28 melanoma
# OVCAR-3 ovarian = system: OVCAR-3 ovarian
# CCRF-CEM leukemia = system: CCRF-CEM leukemia
# HCC-2998 colon = system: HCC-2998 colon
# DU-145 prostate = system: DU-145 prostate
# NCI-H23 lung = system: NCI-H23 lung
# HS 578T breast = system: HS 578T breast
# HOP-92 NSCLC = system: HOP-92 NSCLC
# COLO 205 colon = system: COLO 205 colon
# K-562 leukemia = system: K-562 leukemia
# UACC-257 melanoma = system: UACC-257 melanoma
# LOX IMVI melanoma = system: LOX IMVI melanoma
# IGROV1 ovarian = system: IGROV1 ovarian
# OVCAR-4 ovarian = system: OVCAR-4 ovarian
# RPMI-8226 leukemia = system: RPMI-8226 leukemia
# SF-539 CNS = system: SF-539 CNS
# PC-3 prostate = system: PC-3 prostate
# A498 renal = system: A498 renal
# SK-MEL-2 melanoma = system: SK-MEL-2 melanoma
# SN12C renal = system: SN12C renal
# SK-MEL-5 melanoma = system: SK-MEL-5 melanoma
# HOP-62 NSCLC = system: HOP-62 NSCLC
# TK-10 renal = system: TK-10 renal
# RXF 393 renal = system: RXF 393 renal
# SNB-19 CNS = system: SNB-19 CNS
# NCI-H460 lung = system: NCI-H460 lung
# SNB-75 CNS = system: SNB-75 CNS
# MDA-MB-231 breast = system: MDA-MB-231 breast
# UACC-62 melanoma = system: UACC-62 melanoma
# CAKI-1 renal = system: CAKI-1 renal
# SF-268 CNS = system: SF-268 CNS
# NCI/ADR-RES ovarian = system: NCI/ADR-RES ovarian
# MDA-MB-468 breast = system: MDA-MB-468 breast
# SK-OV-3 ovarian = system: SK-OV-3 ovarian
# SR leukemia = system: SR leukemia
# BT-549 breast = system: BT-549 breast
# 786-0 renal = system: 786-0 renal
# KM12 colon = system: KM12 colon
# UO-31 renal = system: UO-31 renal
# ACHN renal = system: ACHN renal
# U251 CNS = system: U251 CNS
# NCI-H226 lung = system: NCI-H226 lung
# MCF7 breast = system: MCF7 breast
# MOLT-4 leukemia = system: MOLT-4 leukemia
# T-47D breast = system: T-47D breast
# HL-60(TB) leukemia = system: HL-60(TB) leukemia
# HCT-15 colon = system: HCT-15 colon
smiles,measurement,setting,value
O=C(CN1CCN(c2ncnc3c2cnn3-c2ccccc2)CC1)Nc1nncs1,GI50,MDA-MB-435,13.6 µM
same,TGI,MDA-MB-435,27.5 µM
same,GI50,MALME-3M melanoma,1.69 µM
same,TGI,MALME-3M melanoma,3.3 µM
same,GI50,SF-295 CNS,10.3 µM
same,TGI,SF-295 CNS,22.3 µM
same,GI50,HCT-116 colon,3.75 µM
same,TGI,HCT-116 colon,14.5 µM
same,GI50,OVCAR-5 ovarian,6.41 µM
same,TGI,OVCAR-5 ovarian,19.3 µM
same,GI50,OVCAR-8 ovarian,1.93 µM
same,TGI,OVCAR-8 ovarian,4.02 µM
same,GI50,M14 melanoma,4.17 µM
same,TGI,M14 melanoma,16.2 µM
same,GI50,A549 NSCLC,2.07 µM
same,TGI,A549 NSCLC,4.31 µM
same,GI50,EKVX NSCLC,2.9 µM
same,TGI,EKVX NSCLC,11.1 µM
same,GI50,HT29 colon,6.91 µM
same,TGI,HT29 colon,19.3 µM
same,GI50,SW-620 colon,4.99 µM
same,TGI,SW-620 colon,16.1 µM
same,GI50,NCI-H522 lung,1.62 µM
same,TGI,NCI-H522 lung,3.09 µM
same,GI50,SK-MEL-28 melanoma,13.9 µM
same,TGI,SK-MEL-28 melanoma,26.9 µM
same,GI50,OVCAR-3 ovarian,1.93 µM
same,TGI,OVCAR-3 ovarian,3.67 µM
same,GI50,CCRF-CEM leukemia,2.55 µM
same,TGI,CCRF-CEM leukemia,7.17 µM
same,GI50,HCC-2998 colon,13.6 µM
same,TGI,HCC-2998 colon,26.4 µM
same,GI50,DU-145 prostate,1.8 µM
same,TGI,DU-145 prostate,3.24 µM
same,GI50,NCI-H23 lung,1.74 µM
same,TGI,NCI-H23 lung,3.57 µM
same,GI50,HS 578T breast,12.4 µM
same,TGI,HS 578T breast,63 µM
same,GI50,HOP-92 NSCLC,1.57 µM
same,TGI,HOP-92 NSCLC,3.46 µM
same,GI50,COLO 205 colon,14 µM
same,TGI,COLO 205 colon,27 µM
same,GI50,K-562 leukemia,7.91 µM
same,TGI,K-562 leukemia,36.6 µM
same,GI50,UACC-257 melanoma,14.1 µM
same,TGI,UACC-257 melanoma,28.1 µM
same,GI50,LOX IMVI melanoma,1.49 µM
same,TGI,LOX IMVI melanoma,2.81 µM
same,GI50,IGROV1 ovarian,2.68 µM
same,TGI,IGROV1 ovarian,7.65 µM
same,GI50,OVCAR-4 ovarian,10.3 µM
same,TGI,OVCAR-4 ovarian,28.1 µM
same,GI50,RPMI-8226 leukemia,2.83 µM
same,TGI,RPMI-8226 leukemia,8.67 µM
same,GI50,SF-539 CNS,1.76 µM
same,TGI,SF-539 CNS,3.32 µM
same,GI50,PC-3 prostate,4.33 µM
same,TGI,PC-3 prostate,17.1 µM
same,GI50,A498 renal,18.4 µM
same,TGI,A498 renal,35 µM
same,GI50,SK-MEL-2 melanoma,12.6 µM
same,TGI,SK-MEL-2 melanoma,25.8 µM
same,GI50,SN12C renal,1.94 µM
same,TGI,SN12C renal,5.06 µM
same,GI50,SK-MEL-5 melanoma,10.2 µM
same,TGI,SK-MEL-5 melanoma,21.9 µM
same,GI50,HOP-62 NSCLC,1.62 µM
same,TGI,HOP-62 NSCLC,3.29 µM
same,GI50,TK-10 renal,3.09 µM
same,TGI,TK-10 renal,6.14 µM
same,GI50,RXF 393 renal,1.68 µM
same,TGI,RXF 393 renal,3.31 µM
same,GI50,SNB-19 CNS,12.2 µM
same,TGI,SNB-19 CNS,24.6 µM
same,GI50,NCI-H460 lung,4.25 µM
same,TGI,NCI-H460 lung,14.7 µM
same,GI50,SNB-75 CNS,15.1 µM
same,TGI,SNB-75 CNS,30.5 µM
same,GI50,MDA-MB-231 breast,1.78 µM
same,TGI,MDA-MB-231 breast,3.87 µM
same,GI50,UACC-62 melanoma,4.97 µM
same,TGI,UACC-62 melanoma,18.7 µM
same,GI50,CAKI-1 renal,1.6 µM
same,TGI,CAKI-1 renal,2.97 µM
same,GI50,SF-268 CNS,4.79 µM
same,TGI,SF-268 CNS,19.3 µM
same,GI50,NCI/ADR-RES ovarian,1.77 µM
same,TGI,NCI/ADR-RES ovarian,3.69 µM
same,GI50,MDA-MB-468 breast,3.05 µM
same,TGI,MDA-MB-468 breast,13.7 µM
same,GI50,SK-OV-3 ovarian,12.5 µM
same,TGI,SK-OV-3 ovarian,25 µM
same,GI50,SR leukemia,2.11 µM
same,TGI,SR leukemia,5.26 µM
same,GI50,BT-549 breast,1.55 µM
same,TGI,BT-549 breast,3.02 µM
same,GI50,786-0 renal,1.99 µM
same,TGI,786-0 renal,3.56 µM
same,GI50,KM12 colon,4.46 µM
same,TGI,KM12 colon,15.9 µM
same,GI50,UO-31 renal,1.17 µM
same,TGI,UO-31 renal,2.39 µM
same,GI50,ACHN renal,1.79 µM
same,TGI,ACHN renal,3.18 µM
same,GI50,U251 CNS,1.92 µM
same,TGI,U251 CNS,3.99 µM
same,GI50,NCI-H226 lung,1.84 µM
same,TGI,NCI-H226 lung,5.14 µM
same,GI50,MCF7 breast,4.32 µM
same,TGI,MCF7 breast,18 µM
same,GI50,MOLT-4 leukemia,4.08 µM
same,TGI,MOLT-4 leukemia,31.3 µM
same,GI50,T-47D breast,7.93 µM
same,TGI,T-47D breast,24.1 µM
same,GI50,HL-60(TB) leukemia,10.4 µM
same,TGI,HL-60(TB) leukemia,39.5 µM
same,GI50,HCT-15 colon,1.79 µM
same,TGI,HCT-15 colon,3.42 µM
